Assay results as given in US11090308B2, “Methods of treating liver disorders or lipid disorders with a THR-beta agonist” (Madrigal Pharmaceuticals, Inc., priority 2016, dated 2021).

Columns and labels:
[1] = Rat oral PK and bioavailability studies; format: in vivo
Description: (§1) The following studies have been conducted: (a) in vitro drug protein binding, transporter (organic anion transporting polypeptide [OATP], P-glycoprotein [P-gp], breast cancer-related protein [BCRP], and multiple drug resistance protein 1 [MDR1]), and cytochrome P-450 enzyme assays to investigate absorption, distribution, and excretion; (b) in vivo MGL-3196 rat and dog oral PK and bioavailability studies; (c) in vivo ^14C-MGL-3196 rat and dog oral pharmacokinetics, absorption, excretion, and tissue distribution by quantitative whole-body autoradiography (QWBA) studies; and (d) liver disposition of MGL-3196 using an in vitro sandwiched hepatocyte model system (B-CLEAR® technology) in dog (SCDH) and human (SCHH) hepatocytes.
Rat & Dog PK/Bioavailability Studies were also performed.

[2] = test system: sandwich-cultured human hepatocytes (SCHH); test: Hepatobiliary disposition in sandwich-cultured human hepatocytes (SCHH); format: in vitro ADME
Experimental: Qualyst Transporter Solutions evaluated the hepatic uptake of MGL-3196 in sandwich cultured human hypetocytes (SCHH). MGL-3196 was evaluated at 30 μM after a 20-minute incubation (based on a pilot uptake study) in the presence of a physiologic concentration of bovine serum albumin (BSA, ˜4%). The experiment was performed in a 24-well format using 1 lot of Transporter Certified™ human hepatocytes (N=1). Each test condition was performed in 3 wells to provide triplicate data. Sample preparation and LC/MS/MS analysis of cell lysate to determine concentrations of MGL-3196 was performed at QTS according to analytical assay methodology and analytical standards supplied by Madrigal Pharmaceuticals. The following parameter for test article were determined: (a) total accumulation (hepatic uptake), (b) cellular accumulation (intracellular concentration), (c) biliary excretion index (hepatic efflux), (d) Kp value (hepatic accumulation), (e) in vitro biliary clearance (predictive of in vivo biliary clearance), and (f) media accumulation (post incubation supernatant).
Parameters determined: • Bile Accumulation=Total Accumulationplus(+)Buffer−Cellular AccumulationMinus(−)Buffer
[formula] • AUC=(Incubation Time)*(Analyte ConcentrationMedia) • In vitro biliary clearance:
[formula] • (Kp ratio reflects the extent of MGL-3196 accumulation in hepatocyte to the total MGL-3196 concentration in the buffer, outside of the hepatocyte).
MGL-3196 and its metabolite, MGL-3196-M1 (M1), were evaluated in sandwich-cultured human hepatocytes (SCHH) to evaluate the effects of temperature and concentration on total accumulation. Incubations were performed in presence of 4% bovine serum albumin (BSA) for 20 minutes at 37° C. and 4° C. across multiple concentrations (3, 10, 30, and 100 μM). Following the hepatic accumulation study, a species comparison of the hepatobiliary disposition of MGL-3196 (30 μM) and its metabolite, M1, was evaluated in SCHH and sandwich-cultured dog hepatocytes (SCDH) in the presence of 4% BSA.

[3] = molecular target: MDR1 (P-gp) (Homo sapiens, UniProt P08183); test: In vitro drug transporter assay, MDR1 (P-gp); format: in vitro ADME
Sequence of MDR1 (P-gp) (P08183 whole entry, species assumed): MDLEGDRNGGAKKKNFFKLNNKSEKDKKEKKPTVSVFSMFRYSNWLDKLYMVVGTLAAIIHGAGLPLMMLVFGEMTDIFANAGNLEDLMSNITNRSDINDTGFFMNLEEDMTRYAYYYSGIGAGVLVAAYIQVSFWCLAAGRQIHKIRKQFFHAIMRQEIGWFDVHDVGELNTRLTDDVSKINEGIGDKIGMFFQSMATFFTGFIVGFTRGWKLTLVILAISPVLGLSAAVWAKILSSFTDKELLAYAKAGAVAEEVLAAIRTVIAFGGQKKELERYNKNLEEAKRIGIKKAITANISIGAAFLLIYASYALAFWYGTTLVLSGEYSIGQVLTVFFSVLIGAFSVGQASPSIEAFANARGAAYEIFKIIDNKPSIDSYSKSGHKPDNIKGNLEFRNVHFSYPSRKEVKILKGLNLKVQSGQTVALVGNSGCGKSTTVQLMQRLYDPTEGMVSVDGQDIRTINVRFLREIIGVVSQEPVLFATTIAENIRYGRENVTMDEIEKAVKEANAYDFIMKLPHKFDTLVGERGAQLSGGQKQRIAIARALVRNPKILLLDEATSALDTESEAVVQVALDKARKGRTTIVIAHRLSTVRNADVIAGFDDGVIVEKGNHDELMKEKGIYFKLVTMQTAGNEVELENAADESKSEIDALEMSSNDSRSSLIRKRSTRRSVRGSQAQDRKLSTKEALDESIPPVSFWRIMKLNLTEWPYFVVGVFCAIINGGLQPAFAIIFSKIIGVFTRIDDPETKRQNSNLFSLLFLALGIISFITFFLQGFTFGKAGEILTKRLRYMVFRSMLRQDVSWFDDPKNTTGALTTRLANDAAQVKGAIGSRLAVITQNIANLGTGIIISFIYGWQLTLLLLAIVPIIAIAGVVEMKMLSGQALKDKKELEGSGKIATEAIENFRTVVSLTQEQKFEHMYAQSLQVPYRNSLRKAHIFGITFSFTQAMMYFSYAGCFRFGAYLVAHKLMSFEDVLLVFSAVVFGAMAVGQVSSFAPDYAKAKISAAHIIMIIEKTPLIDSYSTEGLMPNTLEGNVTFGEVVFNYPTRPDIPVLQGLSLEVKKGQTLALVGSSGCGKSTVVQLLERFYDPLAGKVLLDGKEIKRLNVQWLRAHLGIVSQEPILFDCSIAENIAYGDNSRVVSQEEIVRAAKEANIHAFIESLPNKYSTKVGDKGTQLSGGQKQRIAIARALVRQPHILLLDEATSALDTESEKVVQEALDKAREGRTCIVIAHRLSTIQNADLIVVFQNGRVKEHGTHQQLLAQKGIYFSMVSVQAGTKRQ
Description: as §1

[4] = molecular target: T1, BCRP (Homo sapiens, UniProt Q9UNQ0); test: In vitro drug transporter assay, BCRP; format: in vitro ADME
T1 sequence (Q9UNQ0 1-655): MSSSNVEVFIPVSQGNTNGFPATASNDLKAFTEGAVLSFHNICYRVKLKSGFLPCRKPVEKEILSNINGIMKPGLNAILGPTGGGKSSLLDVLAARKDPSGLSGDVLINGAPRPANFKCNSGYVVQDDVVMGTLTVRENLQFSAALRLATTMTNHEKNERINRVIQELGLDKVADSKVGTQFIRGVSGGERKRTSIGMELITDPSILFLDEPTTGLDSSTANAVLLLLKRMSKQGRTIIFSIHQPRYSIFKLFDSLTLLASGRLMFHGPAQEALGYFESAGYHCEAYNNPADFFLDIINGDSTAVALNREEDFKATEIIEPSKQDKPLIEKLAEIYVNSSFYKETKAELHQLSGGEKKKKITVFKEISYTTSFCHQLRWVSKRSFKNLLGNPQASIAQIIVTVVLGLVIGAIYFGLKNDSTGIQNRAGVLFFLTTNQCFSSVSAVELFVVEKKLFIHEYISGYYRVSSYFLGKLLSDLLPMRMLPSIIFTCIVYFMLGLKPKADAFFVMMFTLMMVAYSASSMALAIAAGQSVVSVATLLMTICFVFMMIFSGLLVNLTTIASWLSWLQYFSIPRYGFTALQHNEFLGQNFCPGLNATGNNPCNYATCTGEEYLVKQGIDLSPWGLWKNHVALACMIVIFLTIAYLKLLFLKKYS
Description: as §1

[5] = test system: CYP3A4/5; test: In vitro Cytochrome P-450 enzyme assay, CYP3A4/5; format: in vitro ADME
[6] = molecular target: T2, CYP2A6 (Homo sapiens, UniProt P11509); test: In vitro Cytochrome P-450 enzyme assay, CYP2A6; format: in vitro ADME
T2 sequence (P11509 1-494): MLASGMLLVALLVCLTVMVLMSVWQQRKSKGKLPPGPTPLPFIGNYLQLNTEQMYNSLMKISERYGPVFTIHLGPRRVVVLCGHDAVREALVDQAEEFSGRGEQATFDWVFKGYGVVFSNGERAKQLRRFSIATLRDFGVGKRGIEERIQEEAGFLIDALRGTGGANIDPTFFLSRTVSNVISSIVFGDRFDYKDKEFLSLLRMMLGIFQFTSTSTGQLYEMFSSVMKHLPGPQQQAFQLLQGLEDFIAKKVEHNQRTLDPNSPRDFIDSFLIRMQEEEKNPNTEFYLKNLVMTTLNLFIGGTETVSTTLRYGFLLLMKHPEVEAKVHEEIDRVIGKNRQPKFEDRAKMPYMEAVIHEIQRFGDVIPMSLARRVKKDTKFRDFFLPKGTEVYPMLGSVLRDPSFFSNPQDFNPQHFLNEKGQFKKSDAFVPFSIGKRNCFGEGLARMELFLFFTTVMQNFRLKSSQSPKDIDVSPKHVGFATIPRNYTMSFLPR
Description: as §1

[7] = molecular target: BSEP (Homo sapiens, UniProt O95342); test: In vitro drug transporter assay, BSEP; format: in vitro ADME; settings: BSEP-mediated transport of TCA; read-out: Inhibitor of: BSEP, IC50
Sequence of BSEP (O95342 whole entry, species assumed): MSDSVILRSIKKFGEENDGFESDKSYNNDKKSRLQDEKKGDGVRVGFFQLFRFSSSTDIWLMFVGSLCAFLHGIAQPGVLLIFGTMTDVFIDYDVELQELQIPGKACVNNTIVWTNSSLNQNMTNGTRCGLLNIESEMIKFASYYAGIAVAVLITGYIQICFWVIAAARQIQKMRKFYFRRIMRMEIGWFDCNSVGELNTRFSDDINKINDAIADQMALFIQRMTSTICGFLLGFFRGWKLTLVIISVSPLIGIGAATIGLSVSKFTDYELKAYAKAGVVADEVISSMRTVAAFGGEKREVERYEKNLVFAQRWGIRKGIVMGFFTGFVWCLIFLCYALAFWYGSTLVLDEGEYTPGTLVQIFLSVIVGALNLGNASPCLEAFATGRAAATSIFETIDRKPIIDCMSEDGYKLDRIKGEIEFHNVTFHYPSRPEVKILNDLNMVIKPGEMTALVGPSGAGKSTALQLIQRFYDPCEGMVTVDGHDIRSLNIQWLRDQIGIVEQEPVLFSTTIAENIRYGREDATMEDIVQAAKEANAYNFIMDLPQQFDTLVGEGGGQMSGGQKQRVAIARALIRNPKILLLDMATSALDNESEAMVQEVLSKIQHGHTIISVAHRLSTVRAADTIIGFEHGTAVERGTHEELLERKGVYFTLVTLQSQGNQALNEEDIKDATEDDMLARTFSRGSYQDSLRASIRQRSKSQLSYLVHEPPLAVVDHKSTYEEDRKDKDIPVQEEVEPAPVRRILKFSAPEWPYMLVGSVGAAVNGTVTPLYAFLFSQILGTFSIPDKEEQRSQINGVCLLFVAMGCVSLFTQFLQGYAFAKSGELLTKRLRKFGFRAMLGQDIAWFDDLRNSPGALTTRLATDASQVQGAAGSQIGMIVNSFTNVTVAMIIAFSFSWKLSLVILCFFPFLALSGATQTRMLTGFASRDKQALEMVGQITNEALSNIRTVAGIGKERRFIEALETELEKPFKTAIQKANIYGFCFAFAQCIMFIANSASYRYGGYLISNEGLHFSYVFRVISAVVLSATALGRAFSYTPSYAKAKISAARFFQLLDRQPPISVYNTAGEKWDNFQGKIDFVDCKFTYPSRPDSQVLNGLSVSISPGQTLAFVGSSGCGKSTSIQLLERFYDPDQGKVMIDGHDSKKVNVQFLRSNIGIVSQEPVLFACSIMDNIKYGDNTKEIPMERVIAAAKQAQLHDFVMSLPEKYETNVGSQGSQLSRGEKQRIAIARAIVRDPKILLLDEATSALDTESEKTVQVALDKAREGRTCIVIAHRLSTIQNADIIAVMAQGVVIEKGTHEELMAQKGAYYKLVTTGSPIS

[8] = 20 min exposure to MGL-3196 30 μM, 4% BSA

SMILES: CC(C)c1cc(Oc2c(Cl)cc(-n3nc(C#N)c(=O)[nH]c3=O)cc2Cl)n[nH]c1=O [MGL-3196, 2-(3,5-dichloro-4-((5-isopropyl-6-oxo-1,6-dihydropyridazin-3-yl)oxy)phenyl)-3,5-dioxo-2,3,4,5-tetrahydro-1,2,4-triazine-6-carbonitrile]
- bioavailability ([1]; rat, plasma, po): 45 to 98%
- half-life ([1]; rat, plasma, rats, oral dosing, read-out: mean elimination half-life): 2.5 to 7 h
- time of maximum plasma concentrations ([1]; rats, oral dosing): 2 to 6 h
- BEI (Biliary Excretion Index) [2, 8]: 33.7%
- Bile Acc. [2, 8]: 293 pmol/mg
- Cellular Acc. [2, 8]: 570 pmol/mg
- ClBiliary (in vitro biliary clearance) [2, 8]: 0.087 L/h/kg
- ICC (intracellular concentration) [2, 8]: 74.2 µM
- Kp [2, 8]: 2.47 Ratio
- Total Acc. [2, 8]: 863 pmol/mg
- Inhibitor of: MDR1 [3]: not an inhibitor
- Substrate for: MDR1 (P-gp) [3]: weak substrate
- Substrate for: BCRP [4]: BCRP
- Inhibitor of: BCRP, % inhibition ([4]; @ 25 uM genistein): 3-sulfate; 24% @ 25 uM genistein)
- IC50 ([4]; for Estrone-3-sulfate, read-out: Inhibitor of: BCRP, IC50): 27.4 µM
- Inhibitor of: CYP3A4/5 [5]: not an inhibitor
- Inhibitor of: CYP2A6 [6]: not an inhibitor
- IC50 [7]: 34.7 µM

SMILES: CC(CO)c1cc(Oc2c(Cl)cc(-n3nc(C#N)c(=O)[nH]c3=O)cc2Cl)n[nH]c1=O (centres unmarked) [MGL-3623]
- BEI (Biliary Excretion Index) [2, 8]: 30.4%
- Bile Acc. [2, 8]: 1.78 pmol/mg
- Cellular Acc. [2, 8]: 4.01 pmol/mg
- ICC (intracellular concentration) [2, 8]: 0.521 µM
- PIS (post incubation supernatant, cell culture media) [2, 8]: BLQ
- Total Acc. [2, 8]: 5.79 pmol/mg
- accumulation as % of parent's total accumulation ([2]; MGL-3196 30 μM, 20 minutes): 0.67%
- IC50 ([5]; human, weak, read-out: Inhibitor of: CYP3A4/5, IC50): 35 µM
